Test systems include T-47D breast; UACC-257 melanoma; OVCAR-3 ovarian; ACHN renal; NCI/ADR-RES ovarian; SF-539 CNS; RXF 393 renal; SW-620 colon.
What all share (assay): growth of human tumour cells (NCI), 48 h

Values joined by “and” are separate entries in the source; they are usually repeats but may differ in a detail not shown here. Identical values can stand only once.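 These data come from cells grown in 96-well plates and exposed to compound for 48 hours at five concentrations. The concentration for 50% growth inhibition is given as GI50. TGI: total growth inhibition.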

As to `O=C1/C(=C\c2ccccn2)c2ccccc2N1c1c(Cl)cccc1Cl`, the GI50 is 2.6 µM in the assay with T-47D breast; 2.2 µM with UACC-257 melanoma; 1.66 µM in the assay with OVCAR-3 ovarian; 1.82 µM with ACHN renal; 2.51 µM in the assay on NCI/ADR-RES ovarian; 2.44 µM in the assay on SF-539 CNS. Besides, the GI50 in the assay with RXF 393 renal was 1.4 µM; with SW-620 colon, 1.89 µM. Also, the TGI in the assay on T-47D breast is 9.66 µM; with UACC-257 melanoma, 6.19 µM; in the assay on OVCAR-3 ovarian, 3.25 µM; with ACHN renal, 3.91 µM; in the assay with NCI/ADR-RES ovarian, 6.95 µM; in the assay on SF-539 CNS, 6.33 µM. Besides, the TGI in the assay with RXF 393 renal came out at 2.73 µM; in the assay with SW-620 colon, 3.69 µM.
With `COc1ccc(-c2c3c(n(C4OC(COC(C)=O)C(OC(C)=O)C(OC(C)=O)C4OC(C)=O)c(=S)c2C#N)CC(C)(C)CC3=O)cc1` (stereo not drawn), the TGI with T-47D breast is > 100 µM; with UACC-257 melanoma it was > 100 µM; with OVCAR-3 ovarian, > 100 µM; with ACHN renal it was > 100 µM; with NCI/ADR-RES ovarian it was > 100 µM; with SF-539 CNS it was 58.6 µM and > 100 µM. Also, the TGI was 71.8 µM and > 100 µM in the assay on RXF 393 renal; > 100 µM in the assay with SW-620 colon. The GI50 in the assay with UACC-257 melanoma is 27.9 µM and > 100 µM; in the assay on OVCAR-3 ovarian, 40.5 µM and 88.7 µM; with ACHN renal, 46.2 µM and > 100 µM; in the assay with NCI/ADR-RES ovarian, 41.6 µM and > 100 µM; in the assay on RXF 393 renal it was 20.2 µM and > 100 µM.
For the compound `CNC(=O)Cc1nc(-c2cccc(NS(=O)(=O)c3c(F)cccc3F)c2F)c(-c2ccnc(Nc3ccccc3)n2)s1`, the GI50 in the assay with T-47D breast was 6.23 µM; in the assay with UACC-257 melanoma, 0.0142 µM; with OVCAR-3 ovarian, 12.9 µM; in the assay on ACHN renal, 0.889 µM; in the assay on NCI/ADR-RES ovarian, > 50 µM; in the assay on SF-539 CNS, 10.9 µM. The GI50 was 0.181 µM in the assay on RXF 393 renal and 9.54 µM with SW-620 colon. The TGI in the assay on T-47D breast is > 41.1 µM; in the assay on OVCAR-3 ovarian, > 50 µM; in the assay with ACHN renal it was > 50 µM; in the assay with NCI/ADR-RES ovarian, > 50 µM; in the assay on SF-539 CNS it was > 50 µM; with RXF 393 renal, 2.84 µM. Moreover, the TGI in the assay on SW-620 colon is > 50 µM.
As to `Cc1ccc(S(=O)(=O)NNC(=O)c2cc(C)c(C)cc2N)cc1`, the TGI with T-47D breast, in the assay on UACC-257 melanoma, in the assay on OVCAR-3 ovarian, with ACHN renal, in the assay with NCI/ADR-RES ovarian and in the assay with SF-539 CNS was > 100 µM each time. For the same compound, the TGI with RXF 393 renal and with SW-620 colon was > 100 µM each time.
Turning to `CN(Cc1cc(Cl)cc(Cl)c1)CC(C(=O)c1ccccc1)c1ccccc1` (stereo not drawn), the TGI in the assay on T-47D breast turned out to be 8.68 µM; in the assay on UACC-257 melanoma it was 14.9 µM; with OVCAR-3 ovarian, 3.65 µM; with ACHN renal it was 2.16 µM; in the assay with NCI/ADR-RES ovarian it was 5.45 µM; in the assay with SF-539 CNS, 23.2 µM. The TGI in the assay with RXF 393 renal was > 25.6 µM; with SW-620 colon, 2.92 µM.
With `COc1cccc(C2c3cc4c(cc3OC(N3CCCC3)C2C)OCO4)c1O` (stereo not drawn), the TGI is > 94.9 µM with T-47D breast; 40.3 µM with UACC-257 melanoma; 8.02 µM with OVCAR-3 ovarian; > 88.7 µM with ACHN renal; 47.1 µM with NCI/ADR-RES ovarian; 10.6 µM in the assay with SF-539 CNS. Further, the TGI in the assay on RXF 393 renal is 17.4 µM; in the assay on SW-620 colon it was > 100 µM.
On to `COc1ccc(OC)c2c1[nH]c(=O)c1c3ncccc3cn21`, for which the GI50 in the assay with T-47D breast was 3.54 µM; in the assay with UACC-257 melanoma, 5.05 µM; in the assay with OVCAR-3 ovarian it was 4.54 µM; in the assay on ACHN renal, 2.03 µM; in the assay on NCI/ADR-RES ovarian it was 2.56 µM; with SF-539 CNS, 3.96 µM. Moreover, the GI50 was 1.38 µM in the assay with RXF 393 renal and 1.55 µM in the assay on SW-620 colon. The TGI in the assay on T-47D breast is > 100 µM; with UACC-257 melanoma, > 100 µM; with OVCAR-3 ovarian, 18.4 µM; in the assay with ACHN renal it was > 100 µM; in the assay on NCI/ADR-RES ovarian, > 100 µM; in the assay with SF-539 CNS it was > 100 µM. The values for the TGI in the assay with RXF 393 renal and in the assay with SW-620 colon were 4.47 µM and 5.38 µM, respectively.
As to `COc1nc(N)nc2c1ncn2C1OC(CO)C(O)C1O` (stereo not drawn), the GI50 with T-47D breast was > 5000 µM; in the assay on OVCAR-3 ovarian it was > 5000 µM; with ACHN renal, 723 µM; with NCI/ADR-RES ovarian, > 5000 µM; in the assay on SF-539 CNS it was 3800 µM; in the assay with RXF 393 renal, 2.32 µM. In addition, the GI50 with SW-620 colon is > 5000 µM. Besides, the TGI with T-47D breast, in the assay with UACC-257 melanoma, in the assay with OVCAR-3 ovarian, in the assay on ACHN renal, with NCI/ADR-RES ovarian and in the assay with SF-539 CNS was > 5000 µM throughout. In addition, the TGI in the assay with SW-620 colon was > 5000 µM.
For the compound `O=C(/C=C/c1ccccc1)n1c(-c2ccc(Cl)cc2)nc2ccccc21`, the GI50 was 1.73 µM in the assay on T-47D breast; 1.47 µM with UACC-257 melanoma; 1.11 µM in the assay on OVCAR-3 ovarian; 1.18 µM with ACHN renal; 1.49 µM in the assay with NCI/ADR-RES ovarian; 1.47 µM in the assay with SF-539 CNS. Besides, the GI50 is 1.32 µM in the assay with RXF 393 renal and 1.45 µM with SW-620 colon. Also, the TGI with T-47D breast amounted to 7.68 µM; in the assay with UACC-257 melanoma, 3.42 µM; in the assay on OVCAR-3 ovarian it was 2.64 µM; in the assay on ACHN renal, 10 µM; in the assay on NCI/ADR-RES ovarian it was 61.3 µM; with SF-539 CNS it was 2.92 µM. In addition, the TGI in the assay on RXF 393 renal was 3.12 µM; in the assay on SW-620 colon it was 5.03 µM.
In the case of `COC(=O)c1cc(O)c2c(c1C(=O)OC)C[C@H]1[C@@H]3CC=C4C[C@@H](O)CC[C@]4(C)[C@H]3CC[C@]21C`, the GI50 is 1.51 µM with T-47D breast; 2.54 µM in the assay with UACC-257 melanoma; 2.19 µM with OVCAR-3 ovarian; 3.64 µM in the assay on ACHN renal; 3.61 µM in the assay with NCI/ADR-RES ovarian; 2.1 µM in the assay with SF-539 CNS. In addition, the GI50 with RXF 393 renal is 1.19 µM; in the assay on SW-620 colon, 3.48 µM. Besides, the TGI with T-47D breast was 6.91 µM; in the assay on UACC-257 melanoma it was 7.5 µM; in the assay with OVCAR-3 ovarian, 4.94 µM; with ACHN renal it was 17 µM; with NCI/ADR-RES ovarian, 24.4 µM; in the assay on SF-539 CNS it was 6.65 µM. For the same compound, the TGI in the assay with RXF 393 renal is 3.39 µM; in the assay on SW-620 colon it was 17.6 µM.
On to `CC1(CCC(=O)OC2CCCCC2)OCCO1`, for which the TGI in the assay on T-47D breast, with UACC-257 melanoma, with OVCAR-3 ovarian, with ACHN renal, with NCI/ADR-RES ovarian and in the assay on SF-539 CNS was > 100 µM throughout. The TGI in the assay with RXF 393 renal and in the assay on SW-620 colon was > 100 µM throughout.

Source of the values: PubChem BioAssay (NCI).
